# Assay results reported in the supplement of paper PMC10307832.
# Legend:
# Assay in all cases: relative viability (nuclei count vs DMSO), 5 days (fraction); higher = more cells survive
# [1] = compound: C1/C(=C\C2=CC=CS2)/C(=O)/C(=C/C3=CC=CS3)/C1 + Cc1nc(Nc2ncc(C(=O)Nc3c(C)cccc3Cl)s2)cc(N2CCN(CCO)CC2)n1 [Dasatinib] (partner 0.075 µM)
# Method in brief: (§1)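 Dosing by pin tool came one day after lung cancer cell lines were seeded in 1536-well plates, using either one drug or a fixed anchor-drug dose plus five library-drug doses (not always all listed) in √10 steps. After 5 days, nuclei were counted on 4× images. Relative viability is treated-well nuclei count divided by vehicle-well nuclei count, and values are medians of duplicate plates.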
# TPCA-1 + OSI-027 = compound: C1=CC(=CC=C1C2=CC(=C(S2)NC(=O)N)C(=O)N)F [TPCA-1] + COc1cccc2cc(-c3nc([C@H]4CC[C@H](C(=O)O)CC4)n4ncnc(N)c34)[nH]c12 [OSI-027] (partner 0.5 µM)
# Method in brief: as §1
# [2] = compound: C1/C(=C\C2=CC=CS2)/C(=O)/C(=C/C3=CC=CS3)/C1 + CCNC(=O)c1noc(-c2cc(C(C)C)c(O)cc2O)c1-c1ccc(CN2CCOCC2)cc1 [Luminespib] (partner 0.01 µM)
# Method in brief: as §1
# [3] = compound: C[C@]12O[C@H](C[C@]1(O)CO)n1c3ccccc3c3c4c(c5c6ccccc6n2c5c31)CNC4=O [Lestaurtinib] + O=C(CCCCCCC(=O)Nc1ccccc1)NO [Vorinostat] (partner 1 µM)
# Method in brief: as §1
Cell Line,relative viability ([1]; first compound 0.2 µM),relative viability ([1]; first compound 0.6325 µM),relative viability ([1]; first compound 2 µM),relative viability ([1]; first compound 6.325 µM),relative viability ([1]; first compound 20 µM),relative viability (TPCA-1 + OSI-027; first compound 0.04 µM),relative viability (TPCA-1 + OSI-027; first compound 0.1265 µM),relative viability (TPCA-1 + OSI-027; first compound 0.4 µM),relative viability (TPCA-1 + OSI-027; first compound 1.265 µM),relative viability (TPCA-1 + OSI-027; first compound 4 µM),relative viability ([2]; first compound 0.2 µM),relative viability ([2]; first compound 0.6325 µM),relative viability ([2]; first compound 2 µM),relative viability ([2]; first compound 6.325 µM),relative viability ([2]; first compound 20 µM),relative viability ([3]; first compound 0.005 µM),relative viability ([3]; first compound 0.01581 µM),relative viability ([3]; first compound 0.05 µM),relative viability ([3]; first compound 0.1581 µM),relative viability ([3]; first compound 0.5 µM)
LXF-289,0.241,0.178,0.251,0.154,0.203,0.86,0.674,0.763,0.603,0.347,0.705,0.735,0.633,0.611,0.691,0.64,0.741,0.75,0.472,0.184
NCI-H23,0.742,0.832,1.07,0.804,0.692,0.599,0.574,0.514,0.429,0.149,0.237,0.197,0.2,0.203,0.194,0.602,0.645,0.549,0.308,0.126
NCI-H322M,0.256,0.244,0.249,0.237,0.247,0.567,0.534,0.564,0.581,0.382,0.994,0.831,0.938,0.812,0.745,0.764,0.935,,0.701,0.461
NCI-H358,0.155,0.178,0.18,,0.164,0.808,0.657,0.816,0.52,0.226,0.324,0.453,0.337,,0.341,0.691,0.539,0.382,0.145,0.117
NCI-H441,0.798,0.739,0.573,0.522,0.412,0.841,0.443,0.511,0.302,0.201,0.331,0.377,0.343,0.37,0.345,0.641,0.837,0.62,0.573,0.389
NCI-H460,0.562,0.526,0.6,0.461,0.484,0.794,0.642,0.631,0.584,0.137,0.0304,0.0338,0.0299,0.02,0.0356,1,1.01,0.653,1.1,0.503
NCI-H520,0.218,0.212,0.165,0.241,0.213,0.302,0.234,0.19,0.231,0.243,0.231,0.218,0.212,0.209,0.242,0.68,0.675,0.632,0.371,0.211
NCI-H522,0.901,0.854,1.01,0.834,0.919,0.744,0.721,0.843,0.837,0.643,1.13,0.991,1.32,1.12,1.07,0.964,1.13,0.895,0.785,0.474
NCI-H596,0.577,0.677,0.598,0.628,0.586,0.717,0.584,0.678,0.787,0.389,1.06,1.09,1.08,0.912,0.992,0.539,0.746,0.718,0.645,0.795
NCI-H647,0.214,0.145,0.19,0.211,0.16,0.633,0.573,0.602,0.55,0.245,0.154,0.186,0.149,0.203,0.158,0.629,0.695,0.391,0.284,0.109
NCI-H650,0.462,0.416,0.569,0.446,0.444,0.533,0.498,0.617,0.286,0.374,0.901,0.701,0.826,0.735,0.944,0.448,0.427,0.385,0.28,0.149
NCI-H661,0.998,0.801,0.811,0.833,0.85,0.734,0.665,0.749,0.607,0.39,0.942,0.964,0.934,0.843,0.929,0.873,0.669,0.525,0.4,0.339
NCI-H727,0.333,0.49,0.447,0.449,0.387,0.603,0.43,0.664,0.369,0.541,0.428,0.336,0.433,0.477,0.308,1.23,1.35,1.17,,0.625
NCI-H838,0.278,0.268,0.274,0.276,0.284,0.427,0.353,0.391,0.389,0.299,0.387,0.253,0.309,0.222,0.281,0.792,0.724,0.681,0.333,0.172
NCI-H1355,0.772,0.701,0.712,0.598,0.682,0.466,0.365,0.414,0.313,0.234,0.71,0.7,0.733,0.687,0.662,0.733,0.675,0.457,0.412,0.31
NCI-H1395,0.422,0.406,0.399,0.406,0.382,0.745,0.631,0.738,0.585,0.592,0.743,0.701,0.704,0.738,0.663,0.696,0.902,0.607,0.47,0.343
